Values after ≈ are worked out from the molar mass of the structure shown. Each block holds one compound with its values, some of them ahead of it.
Columns and labels:
[1] = biological target: Telomerase reverse transcriptase (Homo sapiens) (UniProt O14746); assay: Inhibition of telomerase (unknown origin) by qRT-PCR analysis relative to control; set-up: concentration or dose not given beside the values; conditions: concentration not given here
A549 = assay: Cytotoxicity against human A549 cells assessed as inhibition of cell growth incubated for 72 hrs by MTT assay; assay type: functional, cell-based; conditions: A549, 72 h
MCF7 [2] = assay: Cytotoxicity against human MCF7 cells assessed as inhibition of cell growth incubated for 72 hrs by MTT assay; assay type: functional, cell-based; conditions: MCF7, 72 h
Ehrlich [3] = assay: (§1) Anticancer activity against mouse solid Ehrlich carcinoma cells implanted in Swiss albino mouse assessed as decrease in serum ALT level at 5 mg/kg administered thrice per week for 2 weeks starting from day 7 post tumor implantation by biochemical assay relative to control; assay type: functional; set-up: scale not given: the % may be the effect or the level left
Ehrlich [4] = assay: Anticancer activity against mouse solid Ehrlich carcinoma cells implanted in Swiss albino mouse assessed as increase in RBC count measured per million cells at 5 mg/kg administered thrice per week for 2 weeks starting from day 7 post tumor implantation by hematological assay (reference value: 2.93 +/- 0.18 10^6/ml); assay type: functional
MCF7 [5] = assay: Cell cycle arrest in human MCF7 cells assessed as accumulation of cells at S phase at 3.1 uM incubated for 48 hrs by PI staining based flow cytometry (reference value: 28.71 %); assay type: functional
[6] = Toxicity in Swiss albino mouse implanted with mouse solid Ehrlich carcinoma assessed as mesangial expansion at 5 mg/kg administered thrice per week for 2 weeks starting from day 7 post tumor implantation by H and E staining based histopathological analysis; assay type: organism-based; conditions: in vivo, 336 h
Ehrlich [7] = assay: Anticancer activity against mouse solid Ehrlich carcinoma implanted in Swiss albino mouse assessed as reduction in tumor volume at 5 mg/kg administered thrice per week for 2 weeks starting from day 7 post tumor implantation relative to DOX; assay type: functional; set-up: scale not given: the % may be the effect or the level left
Ehrlich [8] = assay: Anticancer activity against mouse solid Ehrlich carcinoma cells implanted in Swiss albino mouse assessed as increase in monocyte count at 5 mg/kg administered thrice per week for 2 weeks starting from day 7 post tumor implantation by hematological assay (reference value: 7.42 +/- 0.52 %); assay type: functional
Ehrlich [9] = assay: Anticancer activity against mouse solid Ehrlich carcinoma implanted in Swiss albino mouse assessed as reduction in tumor volume at 5 mg/kg administered thrice per week for 2 weeks starting from day 7 post tumor implantation relative to control; assay type: functional; set-up: scale not given: the % may be the effect or the level left
Ehrlich [10] = assay: Anticancer activity against mouse solid Ehrlich carcinoma cells implanted in Swiss albino mouse assessed as increase in lymphocyte count at 5 mg/kg administered thrice per week for 2 weeks starting from day 7 post tumor implantation by hematological assay (reference value: 35.57 +/- 8.34 %); assay type: functional
Ehrlich [11] = assay: Anticancer activity against mouse solid Ehrlich carcinoma implanted in Swiss albino mouse assessed as reduction in tumor weight at 5 mg/kg administered thrice per week for 2 weeks starting from day 7 post tumor implantation relative to DOX; assay type: functional; set-up: scale not given: the % may be the effect or the level left
Ehrlich [12] = assay: Anticancer activity against mouse solid Ehrlich carcinoma cells implanted in Swiss albino mouse assessed as decrease in serum AST level at 5 mg/kg administered thrice per week for 2 weeks starting from day 7 post tumor implantation by biochemical assay relative to control; assay type: functional; set-up: scale not given: the % may be the effect or the level left
Ehrlich [13] = assay: as §1, with “total protein” for “ALT”, “by biochemical assay tarting” for “starting”; assay type: functional; set-up: scale not given: the % may be the effect or the level left
Ehrlich [14] = assay: Anticancer activity against mouse solid Ehrlich carcinoma cells implanted in Swiss albino mouse assessed as decrease in serum albumin level at 5 mg/kg administered thrice per week for 2 weeks by biochemical assay tarting from day 7 post tumor implantation by biochemical assay relative to control; assay type: functional; set-up: scale not given: the % may be the effect or the level left
[15] = Toxicity in Swiss albino mouse implanted with mouse solid Ehrlich carcinoma assessed as portal tract inflammation in liver at 5 mg/kg administered thrice per week for 2 weeks starting from day 7 post tumor implantation by H and E staining based histopathological analysis; assay type: organism-based; conditions: in vivo, 336 h
Ehrlich [16] = assay: Anticancer activity against mouse solid Ehrlich carcinoma cells implanted in Swiss albino mouse assessed as necrotic cells at 5 mg/kg administered thrice per week for 2 weeks starting from day 7 post tumor implantation by H and E staining based histopathological analysis relative to control; assay type: functional
[17] = Toxicity in Swiss albino mouse implanted with mouse solid Ehrlich carcinoma assessed as hydropic degeneration of hepatocytes at 5 mg/kg administered thrice per week for 2 weeks starting from day 7 post tumor implantation by H and E staining based histopathological analysis; assay type: organism-based; conditions: in vivo, 336 h
Ehrlich [18] = assay: Anticancer activity against mouse solid Ehrlich carcinoma cells implanted in Swiss albino mouse assessed as increase in hemoglobin level at 5 mg/kg administered thrice per week for 2 weeks starting from day 7 post tumor implantation by hematological assay (reference value: 4.67 +/- 0.19 g/dl); assay type: functional
Ehrlich [19] = assay: Anticancer activity against mouse solid Ehrlich carcinoma implanted in Swiss albino mouse assessed as increase in tumor inhibition ratio at 5 mg/kg administered thrice per week for 2 weeks starting from day 7 post tumor implantation relative to control; assay type: functional; set-up: scale not given: the % may be the effect or the level left
[20] = Toxicity in Swiss albino mouse implanted with mouse solid Ehrlich carcinoma assessed as confluent necrosis in liver at 5 mg/kg administered thrice per week for 2 weeks starting from day 7 post tumor implantation by H and E staining based histopathological analysis; assay type: organism-based; conditions: in vivo, 336 h
[21] = Toxicity in Swiss albino mouse implanted with mouse solid Ehrlich carcinoma assessed as tubular injury at 5 mg/kg administered thrice per week for 2 weeks starting from day 7 post tumor implantation by H and E staining based histopathological analysis; assay type: organism-based; conditions: in vivo, 336 h
MCF7 [22] = assay: Induction of apoptosis in human MCF7 cells assessed as total apoptotic cells incubated for 48 hrs by Annexin-V/FITC staining based flow cytometry (reference value: 1.73 %); assay type: functional
Ehrlich [23] = assay: Anticancer activity against mouse solid Ehrlich carcinoma implanted in Swiss albino mouse assessed as reduction in tumor weight at 5 mg/kg administered thrice per week for 2 weeks starting from day 7 post tumor implantation relative to control; assay type: functional; set-up: scale not given: the % may be the effect or the level left
Ehrlich [24] = assay: Anticancer activity against mouse solid Ehrlich carcinoma cells implanted in Swiss albino mouse assessed as increase in neutrophil count at 5 mg/kg administered thrice per week for 2 weeks starting from day 7 post tumor implantation by hematological assay (reference value: 55.43 +/- 8.44 %); assay type: functional

Chain of Telomerase reverse transcriptase (Homo sapiens) (O14746 whole entry): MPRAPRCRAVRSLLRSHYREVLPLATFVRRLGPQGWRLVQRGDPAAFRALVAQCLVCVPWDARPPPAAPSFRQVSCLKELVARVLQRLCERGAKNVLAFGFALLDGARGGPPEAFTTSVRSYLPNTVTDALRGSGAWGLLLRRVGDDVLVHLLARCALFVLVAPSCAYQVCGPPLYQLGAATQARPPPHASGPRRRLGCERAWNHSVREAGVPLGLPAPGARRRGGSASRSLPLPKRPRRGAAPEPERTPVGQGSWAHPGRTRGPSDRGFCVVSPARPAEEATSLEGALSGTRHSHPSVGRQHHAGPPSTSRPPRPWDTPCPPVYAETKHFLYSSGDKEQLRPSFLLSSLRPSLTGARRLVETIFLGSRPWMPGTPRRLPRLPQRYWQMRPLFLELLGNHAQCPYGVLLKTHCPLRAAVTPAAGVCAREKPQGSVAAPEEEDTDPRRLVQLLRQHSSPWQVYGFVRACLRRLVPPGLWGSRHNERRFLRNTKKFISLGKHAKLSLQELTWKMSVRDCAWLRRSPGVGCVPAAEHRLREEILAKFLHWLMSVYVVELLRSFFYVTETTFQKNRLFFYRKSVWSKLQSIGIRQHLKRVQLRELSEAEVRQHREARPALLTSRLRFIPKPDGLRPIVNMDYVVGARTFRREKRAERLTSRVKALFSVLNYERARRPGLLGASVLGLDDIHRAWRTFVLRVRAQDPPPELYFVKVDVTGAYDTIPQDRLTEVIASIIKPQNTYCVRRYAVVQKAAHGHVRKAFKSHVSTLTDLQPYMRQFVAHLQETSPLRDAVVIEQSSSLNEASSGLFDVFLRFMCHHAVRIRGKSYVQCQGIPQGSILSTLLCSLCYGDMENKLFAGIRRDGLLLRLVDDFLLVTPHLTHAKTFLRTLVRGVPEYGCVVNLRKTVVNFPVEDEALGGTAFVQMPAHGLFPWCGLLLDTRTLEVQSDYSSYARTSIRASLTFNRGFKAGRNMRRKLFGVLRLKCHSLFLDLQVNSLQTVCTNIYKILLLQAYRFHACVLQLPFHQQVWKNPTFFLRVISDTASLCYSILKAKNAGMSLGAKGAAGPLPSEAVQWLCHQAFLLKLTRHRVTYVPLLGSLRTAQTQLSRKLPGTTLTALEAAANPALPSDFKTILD

SMILES: Cc1ccc(-c2ccc(SCC(=O)Nc3sc4c(c3C#N)CCC4)nn2)cc1
Activity (Ehrlich [3]): 36.12%
Activity (Ehrlich [4]): 4.53 10^6/ml
Activity (MCF7 [5]): 42.02%
Activity [6]: Toxic
Activity (Ehrlich [7]): 4.3%
Activity (Ehrlich [8]): 9.72%
Activity (Ehrlich [9]): 62.12%
Activity (Ehrlich [10]): 39.14%
Activity (Ehrlich [11]): 8.48%
Activity (Ehrlich [12]): 29.77%
Activity (Ehrlich [13]): 55.54%
Activity (Ehrlich [14]): 28.31%
Activity [15]: Toxic
Activity (Ehrlich [16]): >90%
IC50 (A549): 17.1 µg/mL (≈ 42 µM)
Activity [17]: Toxic
Activity (Ehrlich [18]): 6.74 g/dL
IC50 (MCF7 [2]): 9.47 µg/mL (≈ 23.3 µM)
Activity (Ehrlich [19]): 62.12%
Activity [20]: Non-Toxic
Activity [21]: Toxic
Activity (MCF7 [22]): 42.51%
Activity (Ehrlich [23]): 74.34%

SMILES: N#Cc1c(NC(=O)CSc2ccc(-c3ccc(Cl)cc3)nn2)sc2c1CCC2
inhibition [1]: 10.8%

SMILES: COc1ccc(-c2ccc(SCC(=O)Nc3sc4c(c3C#N)CCC4)nn2)cc1
inhibition [1]: 10.8%

SMILES: N#Cc1c(NC(=O)CSc2ccc(-c3ccccc3)nn2)sc2c1CCC2
inhibition [1]: 10.8%

SMILES: N#Cc1c(NC(=O)CSc2ccc(-c3ccc(Br)cc3)nn2)sc2c1CCC2
inhibition [1]: 10.8%

SMILES: COc1cccc2c1C(=O)c1c(O)c3c(c(O)c1C2=O)C[C@@](O)(C(=O)CO)C[C@@H]3O[C@H]1C[C@H](N)[C@H](O)[C@H](C)O1 [DOXORUBICIN]
Activity (Ehrlich [3]): 39.16%
Activity (Ehrlich [4]): 4.94 10^6/ml
Activity [6]: Toxic
Activity (Ehrlich [24]): 54.14%
Activity (Ehrlich [8]): 8.42%
Activity (Ehrlich [10]): 36.29%
Activity (Ehrlich [12]): 23.43%
Activity (Ehrlich [13]): 48.4%
Activity (Ehrlich [14]): 35.71%
Activity [15]: Non-Toxic
Activity (Ehrlich [16]): >90%
Activity [17]: Toxic
Activity (Ehrlich [18]): 7.34 g/dL
Activity (Ehrlich [19]): 60.4%
Activity [20]: Toxic
Activity [21]: Toxic

SMILES: N#Cc1c(NC(=O)CSc2ccc(-c3ccccc3)nn2)sc2c1CCCC2
inhibition [1]: 10.8%

Now from value to compound, other results behind:

inhibition [1]: 49.1%
SMILES: Cc1ccc(-c2ccc(SCC(=O)Nc3sc4c(c3C#N)CCCC4)nn2)cc1
IC50 (A549): 63.8 µg/mL (≈ 152 µM)
IC50 (MCF7 [2]): 34.5 µg/mL (≈ 82.1 µM)

inhibition [1]: 10.8%
SMILES: N#Cc1c(NC(=O)CSc2ccc(-c3ccc(F)cc3)nn2)sc2c1CCC2

inhibition [1]: 10.8%
SMILES: N#Cc1c(NC(=O)CSc2ccc(-c3ccc(Br)cc3)nn2)sc2c1CCCC2

inhibition [1]: 10.8%
SMILES: COc1ccc(-c2ccc(SCC(=O)Nc3sc4c(c3C#N)CCCC4)nn2)cc1

inhibition [1]: 10.8%
SMILES: N#Cc1c(NC(=O)CSc2ccc(-c3ccc(Cl)cc3)nn2)sc2c1CCCC2

inhibition [1]: 10.8%
SMILES: N#Cc1c(NC(=O)CSc2ccc(-c3ccc(F)cc3)nn2)sc2c1CCCC2

From ChEMBL document CHEMBL5316266, “Ligand-Based Design on the Dog-Bone-Shaped BIBR1532 Pharmacophoric Features and Synthesis of Novel Analogues as Promising Telomerase Inhibitors with In Vitro and In Vivo Evaluations” (J Med Chem, 2023)
